# Reference: the supplement of paper PMC10307832
# How the values were obtained:
# Assay in all cases: relative viability (nuclei count vs DMSO), 5 days (fraction); higher = more cells survive
# FG-4592 + Trametinib = compound: Cc1nc(C(=O)NCC(=O)O)c(O)c2ccc(Oc3ccccc3)cc12 [FG-4592] + CC(=O)Nc1cccc(-n2c(=O)n(C3CC3)c(=O)c3c(Nc4ccc(I)cc4F)n(C)c(=O)c(C)c32)c1 [Trametinib] (partner 0.02 µM)
# Procedure, shortened: (§1)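 The day after seeding in 1536-well plates, lung cancer cell lines were treated by pin tool with a single drug, or with a fixed anchor-drug dose together with five library-drug doses (not always all listed) in √10 steps. After 5 days, a combined fix-and-stain solution (final 0.05% Triton X-100, 1% formaldehyde, 1 ug/ml Hoechst) was added. Nuclei counted on 4× images gave relative viability as treated counts over vehicle counts, reported as the median of duplicate plates.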
# FG-4592 + Crizotinib = compound: Cc1nc(C(=O)NCC(=O)O)c(O)c2ccc(Oc3ccccc3)cc12 [FG-4592] + C[C@@H](Oc1cc(-c2cnn(C3CCNCC3)c2)cnc1N)c1c(Cl)ccc(F)c1Cl [Crizotinib] (partner 1 µM)
# Procedure, shortened: as §1
# FG-4592 + OSI-027 = compound: Cc1nc(C(=O)NCC(=O)O)c(O)c2ccc(Oc3ccccc3)cc12 [FG-4592] + COc1cccc2cc(-c3nc([C@H]4CC[C@H](C(=O)O)CC4)n4ncnc(N)c34)[nH]c12 [OSI-027] (partner 0.5 µM)
# Procedure, shortened: as §1
# IU1-47 + Olaparib = compound: CC1=CC(=C(N1C2=CC=C(C=C2)Cl)C)C(=O)CN3CCCCC3 [IU1-47] + O=C(c1cc(Cc2n[nH]c(=O)c3ccccc23)ccc1F)N1CCN(C(=O)C2CC2)CC1 [Olaparib] (partner 8 µM)
# Procedure, shortened: as §1
Cell Line,relative viability (FG-4592 + Trametinib; first compound 0.08 µM),relative viability (FG-4592 + Trametinib; first compound 0.253 µM),relative viability (FG-4592 + Trametinib; first compound 2.53 µM),relative viability (FG-4592 + Trametinib; first compound 8 µM),relative viability (FG-4592 + Crizotinib; first compound 0.08 µM),relative viability (FG-4592 + Crizotinib; first compound 0.253 µM),relative viability (FG-4592 + Crizotinib; first compound 0.8 µM),relative viability (FG-4592 + Crizotinib; first compound 2.53 µM),relative viability (FG-4592 + Crizotinib; first compound 8 µM),relative viability (FG-4592 + OSI-027; first compound 0.08 µM),relative viability (FG-4592 + OSI-027; first compound 0.253 µM),relative viability (FG-4592 + OSI-027; first compound 0.8 µM),relative viability (FG-4592 + OSI-027; first compound 2.53 µM),relative viability (FG-4592 + OSI-027; first compound 8 µM),relative viability (IU1-47 + Olaparib; first compound 0.08 µM),relative viability (IU1-47 + Olaparib; first compound 0.253 µM),relative viability (IU1-47 + Olaparib; first compound 0.8 µM),relative viability (IU1-47 + Olaparib; first compound 2.53 µM),relative viability (IU1-47 + Olaparib; first compound 8 µM),relative viability (FG-4592 + Trametinib; first compound 0.8 µM)
NCI-H1993,0.556,0.516,0.479,0.507,0.969,0.873,0.919,0.834,0.828,0.508,0.504,0.546,0.512,0.559,1.22,1.01,1.08,1.08,1.14,
NCI-H1734,0.719,0.631,0.733,0.559,0.638,0.711,0.674,0.595,0.643,0.565,0.621,0.541,0.529,0.445,0.669,0.75,0.631,0.608,0.656,0.618
HOP-62,0.399,0.354,0.392,0.334,0.981,0.89,1.01,0.922,0.654,0.839,0.736,0.814,0.722,0.713,0.428,0.622,0.404,0.554,0.604,0.353
LOU-NH91,0.807,0.766,0.773,0.748,0.738,0.677,0.716,0.727,0.715,0.722,0.399,0.753,0.666,0.687,1.02,0.995,0.877,0.966,0.886,0.724
ChaGo-K-1,0.953,0.79,0.846,0.931,1.12,1.09,1.14,1.09,0.942,0.577,0.545,0.532,0.471,0.413,0.433,0.393,0.435,0.452,0.362,0.899
NCI-H2228,0.497,0.503,0.406,0.208,0.592,0.279,0.522,0.437,0.554,0.596,0.402,0.42,0.643,0.376,0.738,0.575,0.596,0.869,0.504,0.494
PC-14,0.708,0.717,0.833,0.496,0.893,0.863,1.02,0.961,0.922,0.871,0.655,0.855,0.747,0.494,0.197,0.308,0.204,0.238,0.233,0.71
NCI-H1437,0.539,0.414,0.47,0.301,0.95,0.911,1.03,0.936,0.879,0.907,0.812,0.862,0.667,0.506,0.623,0.615,0.618,0.633,0.549,0.473
NCI-H460,0.163,0.13,0.0958,0.129,0.87,0.864,1.21,0.952,0.994,0.757,0.641,0.721,0.554,0.614,0.545,0.407,0.501,0.398,0.35,0.127
NCI-H1666,0.88,0.856,0.776,0.711,0.993,0.903,0.829,0.944,0.728,0.809,0.803,0.837,0.775,0.621,0.757,0.681,0.79,0.713,0.759,0.922
NCI-H1651,0.85,0.836,0.774,0.82,0.89,0.799,0.829,0.863,0.862,0.741,0.639,0.719,0.645,0.605,0.155,0.162,0.17,0.183,0.185,0.76
NCI-H1755,0.792,0.74,0.827,0.725,0.77,0.875,0.864,0.941,0.916,0.661,0.649,0.727,0.737,0.693,0.914,0.872,0.883,0.948,0.829,0.729
NCI-H661,0.559,0.525,0.554,0.525,,,1.29,1.04,1.1,0.712,0.688,0.688,0.763,0.668,0.798,0.735,0.807,0.801,0.589,0.536
HARA,,,0.586,0.667,1.06,0.967,,1,0.977,0.334,0.335,0.434,0.392,0.234,1.02,,0.703,0.632,0.567,
NCI-H596,0.861,0.804,0.842,0.564,1.02,0.898,,0.806,0.778,0.595,0.634,0.513,0.431,0.434,0.676,,0.754,0.718,0.632,
NCI-H23,0.381,0.38,0.394,0.327,0.556,0.471,0.654,0.627,0.472,0.612,0.517,0.488,0.325,0.439,0.288,,0.281,0.385,0.257,0.37
LCLC-97TM1,0.211,0.241,0.225,0.148,0.347,0.342,0.372,,0.435,0.665,0.397,0.716,0.488,0.395,0.44,0.461,0.352,,0.21,
